In publication PMC7418971 (PLoS Pathogens, 2020):

Key:
[1] = target: Eng195 M2-N31 CD peptide (aa 18-60) (Influenza A virus, UniProt P06821, A27V/L43T); format: biochemical, Influenza A/England/195/2009 (H1N1)
[2] = target: Eng195 M2-S31 CD peptide (aa 18-60) (Influenza A virus, UniProt P06821, A27V/L43T/N31S); format: biochemical, Influenza A/England/195/2009 (H1N1)
[3] = tested on: Eng195 in MDCK culture; format: cell-based, influenza A virus
[4] = tested on: E195 engineered to express M2-S31; format: cell-based, influenza A virus
[5] = target: Eng195 M2-N31 TM peptide (aa 18-46) (Influenza A virus, UniProt P06821, A27V/L43T); format: biochemical, Influenza A/England/195/2009 (H1N1)
[6] = target: M2-N31 CD peptide channels (Influenza A virus, UniProt P06821, A27V/L43T); format: biochemical, Influenza A/England/195/2009 (H1N1)
[7] = target: M2-N31 TM peptides (Influenza A virus, UniProt P06821, A27V/L43T); format: biochemical, Influenza A/England/195/2009 (H1N1)
[8] = tested on: M2-S31N (H3N2 Udorn); settings: read-out: IC50 in two-electrode voltage clamp assay; cited from earlier work

c1cc2nc(C34CC5CC(CC(C5)C3)C4)[nH]c2cn1 [D]
effect on M2-N31 CD peptide channel activity [1]: inhibited
effect on M2-S31 CD peptide channel activity [2]: inhibited

Cc1ncc(C23CC4CC(CC(C4)C2)C3)[nH]1 [H]
effect on M2-N31 CD peptide channel activity [1]: inhibited
effect on M2-S31 CD peptide channel activity [2]: inhibited

CC(N)C12CC3CC(CC(C3)C1)C2 (racemic) [rimantadine, (RS)-1-(1-adamantyl)ethanamine, reference compound]
effect on M2-N31 CD peptide channel activity [1]: only blocked activity of Eng195 M2-S31 peptides
inhibitor concentration under which virus could be expanded from plaques [3]: 80 µM
time for cytopathic effects (CPE) to manifest on plaque expansion [3]: ≤ 24 h
effect on M2-S31 CD peptide channel activity [2]: blocked activity
inhibition of channel activity of M2-WT (S31) [2]: 50%

CCCCCCCCCN1C[C@H](O)[C@@H](O)[C@H](O)[C@H]1CO [NNDNJ, reference compound]
effect on M2-N31 CD peptide channel activity [1]: blocked the activity
effect on M2-S31 CD peptide channel activity [2]: blocked the activity

O=C(Nc1nnc[nH]1)c1cc2ccccc2o1 [K]
effect on M2-N31 CD peptide channel activity [1]: not N31
antiviral effect versus E195 with M2-S31 (N31S) [4]: neither B nor K exhibited antiviral effects
effect on M2-S31 CD peptide channel activity [2]: activity versus M2-S31

OCCNC12CC3CC(CC(C3)C1)C2 [J]
effect on M2-N31 CD peptide channel activity [1]: inhibited
effect on M2-S31 CD peptide channel activity [2]: inhibited

OC(CN1CCCC1)C12CC3CC(CC(C3)C1)C2 (stereo not shown) [G]
effect on M2-N31 CD peptide channel activity [1]: no activity
effect on M2-S31 CD peptide channel activity [2]: no activity

Cc1ccc2nc(Oc3ccccc3)ccc2c1 [DP9]
% M2 activity (40 µM) N31 TM [5]: 100%
% M2 activity (40 µM) N31 CD [1]: 65.8%
% M2 activity (40 µM) S31 CD [2]: 97.4%

Nc1nc(-c2cc3c(cc2Cl)OCCO3)cs1 [L]
effect on M2-N31 CD peptide channel activity [1]: inactive
effect on M2-S31 CD peptide channel activity [2]: inactive

CN1CCN(C(=O)c2ccc3ccccc3c2)CC1 [B]
effect on M2-N31 CD peptide channel activity [1]: not N31
antiviral effect versus E195 with M2-S31 (N31S) [4]: neither B nor K exhibited antiviral effects
effect on M2-S31 CD peptide channel activity [2]: activity versus M2-S31

c1csc(-c2cc(CNC34CC5CC(CC(C5)C3)C4)no2)c1 [M2WJ332, (3S,5S,7S)-N-{[5-(thiophen-2-yl)-1,2-oxazol-3-yl]methyl}tricycle[3.3.1.1~3,7~]decan-1-aminium, reference compound]
% M2 activity (40 µM) N31 TM [5]: 100%
effect on M2-N31 TM peptide channel activity [5]: no TM-specific activity
% M2 activity (40 µM) N31 CD [1]: 58.4%
effect on M2-N31 CD peptide channel activity [1]: blocked the activity
inhibition of channel activity of the N31 CD peptide [1]: ~ 40%
effect on CD peptide activity in bilayer [6]: abrogate activity
inhibition of M2-N31 CD peptide channels in bilayer [6]: sensitive to nanomolar concentrations
effect on TM peptide activity in bilayer [7]: modest effect
inhibition of M2-N31 TM peptide channels in bilayer [7]: retained channel activity
IC50 [8]: 16 µM
inhibitor concentration under which virus could be expanded from plaques [3]: 80 µM
plaques retained by selected supernatants [3]: ~ 30 % of DMSO control
time for cytopathic effects (CPE) to manifest on plaque expansion [3]: ≤ 24 h
% M2 activity (40 µM) S31 CD [2]: 85%

CCN1CCC(NC2C3CC4CC(C3)CC2C4)CC1 (stereo not shown) [E]
effect on M2-N31 CD peptide channel activity [1]: no activity
effect on M2-S31 CD peptide channel activity [2]: no activity

Cc1c2ccccc2n2cc(-c3ccccc3)nc(C(C)C)c12 [DL7]
% M2 activity (40 µM) N31 TM [5]: 15.0%
% M2 activity (40 µM) N31 CD [1]: 19.5%
% M2 activity (40 µM) S31 CD [2]: 31.3%

COc1ccccc1NC(=S)NC(=O)c1cc2ccccc2cc1OC [L1.1]
% M2 activity (40 µM) N31 TM [5]: 22.0%
% M2 activity (40 µM) N31 CD [1]: 32.8%
antiviral effect versus E195 with M2-S31 (N31S) [4]: active
inhibition of M2-N31 TM peptide channels in bilayer [7]: inhibited TM peptides
inhibitor concentration under which virus could be expanded from plaques [3]: ≤ 20 µM
time for cytopathic effects (CPE) to manifest on plaque expansion [3]: at least 48 h
% M2 activity (40 µM) S31 CD [2]: 41.8%
